Experimental data as given in patent US7923465B2, “Cannabinoid receptor ligands, pharmaceutical compositions containing them, and process for their preparation” (priority 2005, dated 2011).
Where two headings read alike, the source gives them in different places.

What was measured:
[1] = target: T1, CB1 (Rattus norvegicus, UniProt P20272); assay: Rat CB1 receptor binding using brain membrane, [3H]SR141716A displacement (Protocol I); design: CB1 receptor present in a rat brain membrane preparation; from tissue; host or cells: rat brain membrane; inhibition: dose or concentration left out as unconfirmed; conditions: for inhibition: 1 h
[2] = target: T1, CB1; assay: GTPγS binding assay, CB1 functional assay in rat cerebellar membrane (Protocol VIII); assay type: biochemical; design: 10 μg rat cerebellum membrane; from tissue; host or cells: rat cerebellum membrane, prepared in-house; conditions: for activation at 0.3 µM / activation at 1 µM: 1 h, read-out: Per Se % Stimulation; for activation at 0.3 µM / activation at 1 µM / Per Se % Stimulation: GTPγS binding over basal, rat cerebellar membrane; for activation at 0.3 µM: tested at 300 nM; for inhibition at 0.3 µM / inhibition at 1 µM / % Inhibition of WIN-55212-2 induced stimulation: GTPγS binding; for inhibition at 0.3 µM: tested at 300 nM in presence of 1 μM WIN 55,212-2; for inhibition at 0.3 µM / inhibition at 1 µM: read-out: % Inhibition of WIN-55212-2 induced stimulation; for activation at 1 µM / Per Se % Stimulation: tested at 1 uM; for inhibition at 1 µM / % Inhibition of WIN-55212-2 induced stimulation: tested at 1 uM in presence of 1 μM WIN 55,212-2
Description: VIII. Protocol for GTPγS Binding Assay (CB1 Functional Assay in Rat Cerebellar Membrane)
In this GTPγS binding assay, total, basal and nonspecific binding were determined. See Griffin G., Atkinson P. J., Showalter V. M., Martin B. R. and Abood M. E., “Evaluation of cannabinoid receptor agonists and antagonists using the Guanosine-5′-O-(3-(^35S)thio)-triphosphate binding assay in rat cerebellar membranes,” J Pharmacol Exp Ther 285: 553-560, 1998. Three wells for total binding, three wells for basal binding, and three wells for nonspecific binding at 0.2 nM concentration of radioligand were used. Basal binding was defined by 50 μM GDP (Guanosine diphosphate) and non-specific binding was defined by 10 μM unlabeled GTPγS. 10 μg rat cerebellum membrane, 50 μM of GDP, WIN-55212-2 or test compound (1 μM or 300 nM), 10 μM unlabeled GTPγs, and 0.2 nM of [^35S]GTPγS were added into a 96 well plate and the final volume of the reaction mixture was made with GTPγS buffer (50 mM Tris, 3 mM anhydrous MgCl2, 0.2 mM EGTA and 100 mM NaCl pH 7.4) to 200 μl. The plates were incubated at 30° C. for 1 hour. Then the reaction was stopped by filtration using a Whatman GF/B-96 microfilter plate. Three washings were given using Tris-HCl. The radioactivity bound to the brain membrane was retained on the filter disks to which scintillation fluid was added (Microscint PS). Then plates were read for radioactive counts using a Beta Liquid Scintillation Counter (Packard Instruments, Ill., USA).
The rat cerebellar brain membrane was prepared as follow: • 1. Sacrifice the rat and take out the whole brain and separate cerebellum as fast as possible and keep it on ice. • 2. Take the weight of the cerebellum and homogenize in 30 ml of homogenizing buffer (50 mM Tris-HCL containing 1 mM EDTA and 5% sucrose, pH 7.5) using homogenizer in cold condition. • 3. Centrifuge the homogenized cerebellum at 18000 rpm (38000 g) for 15 min at 4° C. • 4. Resuspend the pellet in 5 ml 50 mM Tris-HCL containing 1 mM EDTA and keep it on ice for 30 min. • 5. Pass the membrane through insulin syringe to ensure uniform suspension. • 6. Centrifuge the membrane at 18000 rpm at 4° C. for 20 min. • 7. Reconstitute the pellet in 3 ml of GTPγS buffer and estimate the protein by BCA assay and store the membrane in aliquots of 1000 μg of protein. CB1 Agonist and Antagonist Activity Screening Assay
The test compounds were screened at a final concentration of 1 μM or 300 nM in the absence and presence of 1 μM of WIN 55, 212-2 in the same manner as described in the GTPγS binding assay.
An agonist will stimulate the GTPγS binding over the basal.
An inverse agonist will decrease the basal GTPγS binding and/or produce more than 100% inhibition of the agonist (WIN-55212-2) induced stimulation.
The percent stimulation of GTPγS binding by each test compound at 1 μM or 300 nM concentration in the absence and presence of 1 μM WIN 55, 212-2 was calculated by comparing it with basal specific bound (Basal binding—Non Specific binding) values.

[3] = target: hCB2 (Homo sapiens, UniProt P34972); assay: In vitro binding assay using hCB2-CHO membranes, [3H]-CP-55,940 displacement (Protocol IV); design: expressed in transfected cells; host or cells: CHO (hCB2-CHO, generated in-house); conditions: hCB2-CHO membranes, [3H]-CP-55,940 displacement
Summary of the method: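 Compounds were tested at a single 300 nM final concentration for displacing 0.75 nM [3H]-CP-55,940 from hCB2-CHO membranes (1 h, 30 °C, 50 mM Tris pH 7.4, 5 mM MgCl2, 1 mM EDTA, 0.1% BSA). Filter-bound radioactivity was counted, with 0.5 μM unlabelled CP-55,940 for nonspecific binding; results are % displacement.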

[4] = rat brain membrane, [3H]SR141716A displacement, read-out: % Displacement Protocol I
[5] = read-out: % Displacement Protocol I, rat brain membrane, [3H]SR141716A displacement
[6] = rat brain membrane, [3H]SR141716A displacement

T1 sequence (P20272 whole entry): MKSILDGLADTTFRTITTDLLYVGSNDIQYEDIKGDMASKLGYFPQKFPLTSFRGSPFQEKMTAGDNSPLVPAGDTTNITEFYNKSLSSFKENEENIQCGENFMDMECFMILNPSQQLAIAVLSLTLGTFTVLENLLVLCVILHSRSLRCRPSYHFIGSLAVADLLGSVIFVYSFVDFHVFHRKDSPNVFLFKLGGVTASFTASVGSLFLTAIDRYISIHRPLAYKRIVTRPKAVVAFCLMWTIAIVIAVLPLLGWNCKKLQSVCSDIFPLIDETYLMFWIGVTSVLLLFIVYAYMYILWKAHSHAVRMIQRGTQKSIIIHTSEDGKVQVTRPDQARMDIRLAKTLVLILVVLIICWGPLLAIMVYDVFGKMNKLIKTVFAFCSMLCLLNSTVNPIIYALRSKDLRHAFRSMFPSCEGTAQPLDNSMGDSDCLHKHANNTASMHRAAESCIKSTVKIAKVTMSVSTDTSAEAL
Sequence of hCB2 (P34972 whole entry): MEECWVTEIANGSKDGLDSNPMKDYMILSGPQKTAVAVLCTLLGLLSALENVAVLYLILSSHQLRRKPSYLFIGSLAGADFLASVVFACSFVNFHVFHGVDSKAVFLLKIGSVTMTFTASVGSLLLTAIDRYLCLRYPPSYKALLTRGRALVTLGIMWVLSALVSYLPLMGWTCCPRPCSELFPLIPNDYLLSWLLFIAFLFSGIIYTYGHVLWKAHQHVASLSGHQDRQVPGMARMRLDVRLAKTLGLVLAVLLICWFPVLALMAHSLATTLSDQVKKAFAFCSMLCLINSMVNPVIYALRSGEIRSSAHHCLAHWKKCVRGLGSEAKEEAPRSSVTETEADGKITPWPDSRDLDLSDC

| SMILES | melting point [°C] | inhibition [1, 4] [%] | activation at 1 µM [2] [%] | inhibition at 1 µM [2] [%] | other results |
| --- | --- | --- | --- | --- | --- |
| C[C@@H](NC(=O)c1nn(-c2ccc(Cl)cc2Cl)c2c1C1CCC2C1)c1ccccc1 (stereo partly drawn) [Example 253, N(3)-[R-(1-phenylethyl)]-1-(2,4-dichlorophenyl)-4,5,6,7-tetrahydro-1H-4,7-methano-indazole-3-carboxamide] | 89 to 92 | 63 | – | – | activation at 0.3 µM [2]: -9.3%; inhibition at 0.3 µM [2]: 79.9% |
| CN(NC(=O)c1nn(-c2ccc(Cl)cc2)c2c1C1CC3CC(C1)CC2C3)C1CCCCC1 [Example 107, N(7)-(N-cyclohexyl-N-methylamino)-5-(4-chlorophenyl)-5,6-diazatetracyclo[7.3.1.1^3,11.0^4,8]tetradeca-4(8),6-diene-7-carboxamide] | 219 | 97.4 | 4 | 71.5 | – |
| O=C(NNc1ccccc1F)c1nn(-c2ccc(Cl)cc2Cl)c2c1C1CCC2C1 (centres unmarked) [Example 264, N(3)-[(2-Fluorophenyl)amino]-1-(2,4-dichlorophenyl)-4,5,6,7-tetrahydro-1H-4,7-methano-indazole-3-carboxamide] | – | 85.6 | -0.1 | 94.5 | – |
| O=C(NN1CCCCC1)c1nn(-c2ccc(F)cc2F)c2c1C1CC3CC(C1)CC2C3 [Example 143, N(7)-Piperidino-5-(2,4-difluorophenyl)-5,6-diazatetracyclo[7.3.1.1^3,11.0^4,8]tetradeca-4(8),6-diene-7-carboxamide] | 215 | 102 | 43.1 | 45 | – |
| O=C(NNc1ccc(Cl)cc1Cl)c1nn(-c2ccc(Cl)cc2)c2c1C1CC3CC(C1)CC2C3 [Example 126, N(7)-(2,4-Dichlorophenylamino)-5-(4-chlorophenyl)-5,6-diazatetracyclo[7.3.1.1^3,11.0^4,8]tetradeca-4(8),6-diene-7-carboxamide] | – | 118 | -7.9 | 104 | – |
| O=C(NCc1ccccc1Cl)c1nn(-c2ccc(Cl)cc2)c2c1C1CC3CC(C1)CC2C3 [Example 111, N(7)-(2-Chlorobenzyl)-5-(4-chlorophenyl)-5,6-diazatetracyclo[7.3.1.1^3,11.0^4,8]tetradeca-4(8),6-diene-7-carboxamide] | 162 to 164 | 111 | 6.1 | 101 | – |
| O=C(NCc1ccccc1)c1nn(-c2ccc(Cl)cc2Cl)c2c1C1CCC2C1 (centres unmarked) [Example 269, N(5)-benzyl-3-(2′,4′-dichlorophenyl)-3,4-diazatricyclo[5.2.1.0^2,6]deca-2(6),4-diene-5-carboxamide] | – | 47.7 | 6 | 91.4 | – |
| O=C(NNc1ccc(Cl)cc1Cl)c1n[nH]c2c1C1(c3ccc(Cl)cc3)CCC2C1 (centres unmarked) [Example 230, N(3)-[(2,4-Dichlorophenyl)amino]-4-(4-chlorophenyl)-4,5,6,7-tetrahydro-1H-4,7-methano-indazole-3-carboxamide] | – | 87.2 | 42.4 | 99.4 | – |
| O=C(NC12CC3CC(CC(C3)C1)C2)c1nn(-c2ccc(Cl)cc2Cl)c2c1C1CCC2C1 (centres unmarked) [Example 242, N(3)-(Adamantan-1yl)-1-(2,4-dichlorophenyl)-4,5,6,7-tetrahydro-1H-4,7-methano-indazole-3-carboxamide] | 201 to 204 | – | – | – | activation at 0.3 µM [2]: 33.4%; inhibition at 0.3 µM [2]: 22.9% |
| O=C(NCc1ccccc1)c1nn(-c2ccc(Cl)cc2Cl)c2c1C1CCC2c2ccccc21 (centres unmarked) [Example 501, N(12)-Benzyl-10-(2,4-dichlorophenyl)-10,11-diazatetracyclo[6.5.2.0^2,7.0^9,13]pentadeca-2,4,6,9(13),11-pentaene-12-carboxamide] | 164 to 166 | 82.5 | 53.7 | 40.1 | – |
| O=C(NCc1ccccc1Br)c1nn(-c2ccc(Cl)cc2)c2c1C1CCC2C1 (centres unmarked) [Example 224, N(3)-(2-Bromobenzyl)-1-(4-chlorophenyl)-4,5,6,7-tetrahydro-1H-4,7-methano-indazole-3-carboxamide] | 141 to 142 | – | 5 | 78.1 | inhibition [1, 5]: 81.6% |
| O=C(NCc1ccccc1)c1nn(-c2ccc(Cl)cc2)c2c1C1CC3CC(C1)CC2C3 [Example 139, N(7)-Benzyl-5-(4′-chlorophenyl)-5,6-diazatetracyclo[7.3.1.1^3,11.0^4,8]tetradeca-4(8)-6-diene-7-carboxamide] | – | – | – | – | % Displacement Protocol I [1, 6]: 62.4%; Per Se % Stimulation [2]: −8.5%; % Inhibition of WIN-55212-2 induced stimulation [2]: 109.1% |
| CN(NC(=O)c1nn(-c2ccc(Cl)cc2)c2c1C1CC3CC(C1)CC2C3)c1ccc(Cl)cc1Cl [Example 127] | – | – | – | – | % Displacement Protocol I [1, 6]: 85.3%; Per Se % Stimulation [2]: 18.0%; % Inhibition of WIN-55212-2 induced stimulation [2]: 100.2% |
| O=C(NC1CCCCC1)c1nn(-c2ccc(Cl)cc2Cl)c2c1C1CCC2C1 (centres unmarked) [Example 237, N(3)-Cyclohexyl-1-(2,4-dichlorophenyl)-4,5,6,7-tetrahydro-1H-4,7-methano-indazole-3-carboxamide] | – | 65.6 | 7.1 | 74.7 | – |
| Cl.O=C(NN1CCCCC1)c1nn(-c2ccc(Cl)cc2Cl)c2c1C1CCC2c2ccccc21 (centres unmarked) [Example 503, N(12)-Piperidino-10-(2,4-dichlorophenyl)-10,11-diazatetracyclo[6.5.2.0^2,7.0^9,13]pentadeca-2,4,6,9(13),11-pentaene-12-carboxamide hydrochloride] | – | – | – | – | inhibition [1, 5]: 81.2%; Per Se % Stimulation [2]: 1.5%; % Inhibition of WIN-55212-2 induced stimulation [2]: 92.0% |
| O=C(NN(c1ccccc1)c1ccccc1)c1nn(-c2ccc(Cl)cc2Cl)c2c1C1CC3CC(C1)CC2C3 [Example 177, N(7)-(N′,N′-Diphenylimino)-5-(2,4-dichlorophenyl)-5,6-diazatetracyclo[7.3.1.1^3,11.0^4,8]tetradeca-4(8),6-diene-7-carboxamide] | – | – | – | – | % Displacement Protocol IV [3]: 15.26%; % Displacement Protocol I [1, 6]: 75.6%; Per Se % Stimulation [2]: 9.7%; % Inhibition of WIN-55212-2 induced stimulation [2]: 109.1% |
| O=C(NN1CCCCC1)c1nn(-c2ccc(Cl)cc2Cl)c2c1C1CC3CC(C1)CC2C3 [Example 180, N(7)-piperidino-5-(2′,4′-dichlorophenyl)-5,6-diazatetracyclo[7.3.1.1^3,11.0^4,8]tetradeca-4(8),6-diene-7-carboxamide] | – | 40.6 | 10 | 87.9 | inhibition at 0.3 µM ([3]; 1 h, read-out: % Displacement Protocol IV): 13.2% |
